Source: patent publication US8173423B2, “Diagnosis and treatment of T-cell acute lymphoblastic leukemia” (VIB VZW, priority 2006, dated 2012)
Non-standard residues stand in square brackets, D forms with d. Residues, ends and D or L forms follow the SMILES beside them. *: point of attachment. Nle = CCCC[C@H](N)C(=O)O; Cbz = O=C(OCc1ccccc1)*

Experiments:
[1] = tested on: melanoma xenografts; settings: Miele 2006; cited from earlier work
[2] = tested on: melanoma cell lines; settings: Miele 2006; cited from earlier work
[3] = tested on: ALL-SIL; settings: reference 4; cited from earlier work
[4] = tested on: T-ALL cells; settings: Miele 2006; cited from earlier work
[5] = tested on: RPMI-8402; settings: reference 4; cited from earlier work
[6] = tested on: MOLT-4; settings: reference 4; cited from earlier work
[7] = tested on: RPMI-8402 cells; experiment: Proliferation, viability and cell cycle of T-ALL cell line (viable cell count, FACS); assay type: cell-based, human; settings: for proliferation: proliferation period of 3 days
Procedure: (§1) DND-41, HSB-2, RPMI-8402, ALL-SIL, MOLT-4, LOUCY, P12-ICHIKAWA, CCRF-CEM (DSMZ, Braunschweig, Germany) were cultured in RPMI-1640 supplemented with 20% fetal calf serum. The number or percentage of viable cells was counted with a Vi-cell XR cell viability analyzer (Beckman Coulter, Fullerton, Calif.). For differentiation experiments, cells were cultured during a period of 6 days and electroporated on the first day and again on the 4th day with 50 nM siRNA. MYB stealth select siRNAs were purchased from Invitrogen (Carlsbad, Calif.). […] Electroporation with a stealth siRNA directed against ERBB4 (Invitrogen, Carlsbad, Calif.), a gene not expressed in these cell lines, served as a control. […] For inhibition of NOTCH1, we treated the cell ines with 1 μM of Compound E (gamma-secretase inhibitor XXI, Calbiochem, San Diego, Calif.) or DMSO (control). The percentage proliferation was calculated by comparing the increase of the number of viable cells from treated cells to the increase of the number of viable cells treated with DMSO and electroporated with a control siRNA, and this for a proliferation period of 3 days.
(§2) Analysis of CD1a, CD3, CD4 and CD8 expression and cell cycle analysis was performed on 0.3-1×10^6 cells 6 days after the first electroporation with siRNA. We used the PE/CD1a, and the TriTEST CD4 FITC/CD8 PE/CD3 PerCP Reagent kit (Becton Dickinson, San Jose, Calif.) and the CycleTEST™ PLUS DNA Reagent Kit (Becton Dickinson). After staining, the cells were detected on a FACSCanto Flow Cytometer (Becton Dickinson) and the data were analyzed with the BD FACSDiva software (Becton Dickinson). Unstained cells and cells treated with ERBB4 siRNA were used as controls. Cell sorting was performed after staining of the cells with the TriTEST CD4/CD8/CD3 kit. Cells were separated into two fractions (differentiated and undifferentiated) using the FACSVantage SE system (Becton Dickinson).
(§3) Cell lines were electroporated every four days with 50-250 nM siRNA. MYB stealth select siRNAs (MYB-HSS106819) were purchased from Invitrogen (Carlsbad, Calif.).

[8] = tested on: ALL-SIL cells; experiment: as above; assay type: cell-based, human; settings: for proliferation: proliferation period of 3 days
Procedure: as §1, §2, §3

[9] = tested on: MYB; experiment: Knockdown of MYB expression by siRNA electroporation, protein blot analysis; assay type: cell-based, human; settings: among MYB stealth select siRNAs
Procedure: FIG. 1: Effect of knockdown of MYB expression on T-ALL cell lines. (a) Protein blot analysis showing that electroporation of three different MYB siRNAs in RPMI-8402 cells causes a decrease of MYB expression, compared with electroporation with no siRNA or control siRNA (ERBB4). […] Control cells were treated with dimethylsulfoxide or a control siRNA. Error bars indicate s.e.m.
DND-41, HSB-2, RPMI-8402, ALL-SIL, MOLT-4, LOUCY, P12-ICHIKAWA, CCRF-CEM (DSMZ, Braunschweig, Germany) were cultured in RPMI-1640 supplemented with 20% fetal calf serum. The number or percentage of viable cells was counted with a Vi-cell XR cell viability analyzer (Beckman Coulter, Fullerton, Calif.). For differentiation experiments, cells were cultured during a period of 6 days and electroporated on the first day and again on the 4th day with 50 nM siRNA. MYB stealth select siRNAs were purchased from Invitrogen (Carlsbad, Calif.). […] Electroporation with a stealth siRNA directed against ERBB4 (Invitrogen, Carlsbad, Calif.), a gene not expressed in these cell lines, served as a control. […] The percentage proliferation was calculated by comparing the increase of the number of viable cells from treated cells to the increase of the number of viable cells treated with DMSO and electroporated with a control siRNA, and this for a proliferation period of 3 days. […]

[10] = tested on: MOLT-4 cells; experiment: Differentiation of T-ALL cell line after MYB knockdown (FACS of CD1a, CD3, CD4, CD8); assay type: cell-based, human
Procedure: as §1, §2

[11] = tested on: RPMI-8402 cells; experiment: as above; assay type: cell-based, human
Procedure: as §1, §2

[12] = tested on: ALL-SIL cells; experiment: as above; assay type: cell-based, human
Procedure: as §1, §2

[13] = tested on: Ras-transformed fibroblasts; settings: Miele 2006; cited from earlier work
[14] = siRNA electroporation and/or 1 μM Compound E, vs DMSO and control siRNA
[15] = 50 nM siRNA electroporated day 1 and day 4, 6 days
[16] = flow-sorted cells analysed 10 d later

Molecule: CCCC[C@@H](C=O)NC(=O)[C@H](CC(C)C)NC(=O)[C@H](CC(C)C)NC(=O)OCc1ccccc1 [z-Leu-leu-Nle-CHO] (Cbz-Leu-Leu-[Nle]-aldehyde)
- apoptosis [1]: induces apoptosis
- apoptosis [2]: induces apoptosis

Molecule: C[C@H](NC(=O)Cc1cc(F)cc(F)c1)C(=O)N[C@H]1N=C(c2ccccc2)c2ccccc2N(C)C1=O [Compound E, (S, S)-2-[2-(3,5-Difluorophenyl)-acetylamino]-N-(1-methyl-2-oxo-5-phenyl-2,3-dihydro-1H-benzo[e][1,4]diazepin-3-yl)-propionamide]
- proliferation [3]: inhibit the proliferation
- growth [4]: causes growth arrest
- proliferation [5]: inhibit the proliferation
- sensitivity to GSI treatment [6]: not sensitive
- proliferation [7, 14]: inhibition of the proliferation
- proliferation [8, 14]: inhibition of the proliferation

Molecule: MYB siRNA 1: MYB stealth select siRNA (Invitrogen), sequence 5′UAUAGUGUCUCUGAAUGGCUGCGGC (SEQ ID NO:1) with complementary strand SEQ ID NO:2 (chain 2 GCCGCAGCCAUUCAGAGACACUAUA; Invitrogen Stealth Select siRNA, chemistry not given here)
- efficiency of siRNA [9]: most efficient
- cell cycle ([7]; siRNA electroporation): only a limited effect
- proliferation [7, 14]: only a limited effect
- viability / cell survival [7, 14]: only a limited effect
- cell cycle ([8]; siRNA electroporation): only a limited effect
- proliferation [8, 14]: only a limited effect
- viability / cell survival [8, 14]: only a limited effect
- differentiation (changes in expression of CD1a, CD3, CD4 or CD8 cell surface markers) [10, 15]: results in the differentiation
- reversibility of differentiation [10, 16]: irreversible
- differentiation (changes in expression of CD1a, CD3, CD4 or CD8 cell surface markers) [11, 15]: results in the differentiation
- reversibility of differentiation [11, 16]: irreversible
- differentiation (changes in expression of CD1a, CD3, CD4 or CD8 cell surface markers) [12, 15]: results in the differentiation
- reversibility of differentiation [12, 16]: irreversible

Molecule: CCC(C)C(NC(=O)OCc1ccccc1)C(=O)NC(C=O)CC(C)C (stereo not drawn) [cbz-IL-CHO] (Cbz-Ile-Leu-aldehyde; configuration not given here)
- antineoplastic activity [13]: Notch-1—dependent antineoplastic activity
